Experimental data taken from patent publication US20240366623A1, “COMPOSITIONS FOR PREVENTING OR TREATING CHARCOT-MARIE-TOOTH DISEASE (CMT)” (Chong Kun Dang Pharmaceutical Corp., priority 2021, published 2024).

Experiments:
Assay type in all cases: in vivo, mouse
[1] = tested on: C3 CMT1A mice; assay: Analysis of muscle fiber atrophy (gastrocnemius) in C3 CMT1A mice
Description: (§1) Ten-week-old C3 CMT1A mice were provided with a standard diet (Central Lab Animal, Inc.) and water ad libitum and were housed in a controlled environment with a temperature of 22±2° C., a humidity of 44-56% and a 12-hour light-dark cycle. All experimental procedures were approved and performed according to the Institutional Animal Care and Use Committee (IACUC) of the Korea CKD Laboratory Animal Center (with an approved number: S-17_033).
Vehicle is 0.5% […] (MC), and each group was administered vehicle or compound 43 for seven weeks. TG or C3 refers to C3 CMT1A mice; a wild type (WT) is a group in which only vehicle is administered to normal mice; Vehicle(C3) or C3 group is a group in which only vehicle is administered to C3 CMT1A mice; and compound 43 is a group in which compound 43 is administered to C3 CMT1A mice with five animals in each group. […]
Mice were anesthetized with isoflurane and systemic perfusion through the heart was performed with saline solution (3 mL). […] The proportion of muscle fibers with atrophy was measured by dividing the number of muscle fibers with atrophy by the […], and the cross-sectional area of the muscle fibers was analyzed using NIS element software, and the results are shown in FIGS. 16 and 17.

[2] = tested on: HSPB1^S135F CMT2F mice; assay: Histopathological analysis: axon size of sciatic nerve fiber in HSPB1^S135F CMT2F mice; details: mean ± SEM
Description: This experiment was made to confirm the effect of the compound of the present disclosure on the axon size of the sciatic nerve fiber.
6.5 to 8.5-month-old male HSPB1^S135F CMT2F mice were provided with a standard diet (Central Lab Animal, Inc.) and water ad libitum and were housed in a controlled environment with a temperature (22±2° C.), humidity (44-56%), and a 12-hour light-dark cycle.
Compound 43 (1 and 10 mg/kg) of the present disclosure was orally administered repeatedly twice a day for 12 weeks. After the final treatment, the sciatic nerve was collected at 0.5 hours and fixed overnight in a 2.5% glutaraldehyde solution (340855, Sigma). A sample was transferred to the Department of Pathology in Asan Hospital for semithin sections and toluidine blue (T3260, Sigma) staining.
The fixed sample was processed conventionally for image analysis. A […] section was prepared and stained with toluidine blue.
A histological evaluation was performed under optical microscopy. Pathological changes including demyelination, remyelination, abnormally thin myelin, and axonal morphological change were investigated from the section. At last, an axon diameter was analyzed with Image J software.
Data were expressed as mean±SEM. One-way ANOVA and post-hoc analysis using Dunnett's test were used for statistical significance between the HSPB1^S135F CMT2F (vehicle) group and the HSPB1^S135F CMT2F (Compound 43) group, and the paired T-test was used for statistical significance between the WT group and the HSPB1^S135F CMT2F (vehicle) group. All statistical analyses were performed with GraphPad Prism 5.0.

[3] = tested on: C3 CMT1A mice; assay: Histopathologic evaluation of sural nerves in C3 CMT1A mice
Description: as §1
Vehicle is 0.5% […] (MC), and each group was administered vehicle or compound 43 for eight weeks. TG or C3 refers to C3 CMT1A mice; a wild type (WT) is a group in which only vehicle is administered to normal mice; Vehicle(C3) or C3 group is a group in which only vehicle is administered to C3 CMT1A mice; and compound 43 is a group in which compound 43 is administered to C3 CMT1A mice with five animals in each group.
At eight weeks after administering vehicle or drug (compound 43), the sural nerves were collected at 0.5 hours after the final drug administration and then fixed overnight in 2.5% glutaraldehyde solution. The fixed samples were subjected to general tissue processing for image analysis, sectioned with a thickness of […], and stained with toluidine blue. Histological evaluation was performed on imaging files taken with an optical microscopy. In each sample, morphological changes of myelin, such as demyelination, remyelination, etc., and pathological changes, including a reduction in axon diameter, were evaluated. The axon and myelin diameters were analyzed with Image J software and a G-ratio thereof was calculated as the ratio of an internal axon diameter to a total external diameter, and the results are shown in FIGS. 21 to 23.
Data were represented as mean±SEM. Statistical significance between groups was tested using one-way ANOVA and post hoc analysis was performed by Dunnett's test. All statistical analyses were performed with GraphPad Prism 9.0.

[4] = tested on: C3 CMT1A mice; assay: Electrophysiological evaluation of sensory nerves in C3 CMT1A mice; details: tail
Description: Ten-week-old CMT1A mice were prepared in the same way as shown in Experimental Example 8-1. Particularly, the mice were separated and dosed with a vehicle or drug in the same manner as in table 12, and the number of mice in each group was five mice.
To perform an electrophysiological evaluation of sensory nerves, a stimulation cathode was placed at the tip of the tail of the mouse, a recording electrode was placed on the tail proximal to the body 30 mm from the stimulation cathode, and a ground electrode was also placed on a leg of the animal. The tail was stimulated to obtain sensory nerve conduction velocity (SNCV) and sensory nerve action potential (SNAP) amplitude values.
Data were represented as mean±SEM([…]). Statistical significance between groups was tested using one-way ANOVA and post hoc analysis was performed by Dunnett's test. All statistical analyses were performed with GraphPad Prism 9.0.

[5] = 10 mg/Kg PO BID eight weeks (FIG. 21)

## O=C(N1CCS(=O)(=O)CC1)N(Cc1ccc(-c2nnc(C(F)F)o2)cn1)c1ccccc1 [Compound 43, N-((5-(5-(difluoromethyl)-1,3,4-oxadiazol-2-yl)pyridin-2-yl)methyl)-N-phenylthiomorpholine-4-carboxamide 1,1-dioxide]
[1]; 10 mg/Kg PO BID seven weeks (FIG. 16)
  proportion of atrophic muscle fibers: lowered
[1]; 10 mg/Kg PO BID seven weeks (FIG. 17)
  cross-sectional area of muscle fibers: increased
[2]; 1 mg/kg PO BID 12 weeks
  axons with Diameter of Axon (μm) 1-2: 691 ± 74
  axons with Diameter of Axon (μm) 2-3: 574 ± 54
  axons with Diameter of Axon (μm) 3-4: 429 ± 70
  axons with Diameter of Axon (μm) 4-5: 269 ± 57
  axons with Diameter of Axon (μm) 5-6: 196 ± 40
  axons with Diameter of Axon (μm) 6-7: 128 ± 26
  axons with Diameter of Axon (μm) 7-8: 83 ± 21
  axons with Diameter of Axon (μm) 8-9: 36 ± 13
  axons with Diameter of Axon (μm) 9-10: 12 ± 5
  axons with Diameter of Axon (μm) <1: 273 ± 64
  axons with Diameter of Axon (μm) >10: 5 ± 3
[2]; 10 mg/kg PO BID 12 weeks
  axons with Diameter of Axon (μm) 1-2: 565 ± 26
  axons with Diameter of Axon (μm) 2-3: 561 ± 49
  axons with Diameter of Axon (μm) 3-4: 588 ± 29
  axons with Diameter of Axon (μm) 4-5: 265 ± 31
  axons with Diameter of Axon (μm) 5-6: 161 ± 21
  axons with Diameter of Axon (μm) 6-7: 112 ± 20
  axons with Diameter of Axon (μm) 7-8: 67 ± 12
  axons with Diameter of Axon (μm) 8-9: 39 ± 12
  axons with Diameter of Axon (μm) 9-10: 16 ± 7
  axons with Diameter of Axon (μm) <1: 124 ± 42
  axons with Diameter of Axon (μm) >10: 6 ± 5
[3]; [5]
  axon diameter (sural nerve): increased
  myelin sheath thickness (sural nerve): increased
[3]; 10 mg/Kg PO BID eight weeks (FIG. 22)
  slope of g-ratio (sural nerve): lower slope than that of vehicle-treated animals
[3]; 10 mg/Kg PO BID eight weeks (FIG. 23)
  proportion of axons with a large diameter (sural nerve): tendency to increase
[4]; 10 mg/Kg PO BID eight weeks (FIG. 24)
  sensory nerve conduction velocity (SNCV): significantly increased
[4]; 10 mg/Kg PO BID eight weeks (FIG. 25)
  sensory nerve action potential (SNAP) amplitude: significantly increased
